Measurements as given in US20260007678A1, “COMBINATION OF ALLOSTERIC AND ORTHOSTERIC EGFR INHIBITORS FOR THE TREATMENT OF CANCER” (Hoffmann-La Roche Inc., priority 2022, published 2026).
pIC50: −log10 of the molar value.

Key:
[1] = molecular target: T1, EGFR WT (Homo sapiens, UniProt P00533); test: HTRF cellular assay in human cancer cells H2073; format: cell-based; set-up: expressing WT EGFR; host or cells: NCI-H2073; settings: EGF 25 ng/ml
[2] = In vitro metabolic stability, intrinsic clearance in hepatocytes; format: in vitro ADME; settings: primary pooled cryopreserved hepatocytes in suspension
Protocol: The in vitro metabolic stability was assessed in human and […] short-term hepatocytes suspensions. Primary pooled cryopreserved hepatocytes obtained from BioIVT (Westbury, NY, USA) were thawed and suspended in William's E medium supplemented with 10% fetal bovine serum. The suspended hepatocytes were pre-incubated at 37° C. (5% CO2) and reactions were initiated by adding the compound. Final assay conditions were 1 μM compound (final assay solvent concentration 0.01% DMSO), 1×10^6 hepatocytes/mL incubate. The mixtures were then incubated up to 2 hours at 37° C.′ (5% CO2). The reactions were stopped by placing samples on dry ice before storage at −80° C. until analysis by LC-MS/MS. The natural logarithm of the percentage initial drug concentration in the incubation samples was plotted against time and a linear regression analysis was applied using GraphPad Prism version 7.04 for Windows (GraphPad Software, La Jolla, CA) to define the slope. The in vitro hepatocyte intrinsic hepatocyte clearance rate (CLint) was calculated from the slope of the linear regression,-slope, with V representing the volume of the incubation in μL and N as the number of hepatocytes per incubation as detailed in Equation X: […]

[3] = molecular target: T2, EGFR^L858R (Homo sapiens, UniProt P00533, L858R); test: HTRF cellular assay in human cancer cells H3255; format: cell-based; settings: read-out: IC50 H3255 EGFR LR
T2 construct: expressing WT EGFR, EGFR^L858R or EGFR^L858R/T790M; host or cells: NCI-H3255
Protocol: (§1) NCI-H3255 cells were obtained from the NCI (#CVCL_6831). Cells were maintained in a humidified incubator at 37° C. and 5% CO2. […] Verification of cell line identities and absence of cross-contaminations by other cell lines was performed through Short Tandem Repeats-PCR analysis (only human cell lines) and MALDI-TOF analysis. […] All cell lines were used for no more than 20 passages after thawing for all described experiments.
Control wells with medium only were also prepared. […] Plates were incubated at 37° C. for 4 hours. […] The cells were eventually lysed in HTRF lysis buffer provided by the kit (see below) and stored at −80° C. until further use. HTRF assay for pEGFR (CisBio #64EG1PEH) or pERK (CisBio #64AERPEH) was then performed according to the manufacturer's instructions.

[4] = molecular target: T3, EGFR kinase domain (L858R) (Homo sapiens, UniProt P00533, L858R); test: Binding kinetics measured by stopped-flow fluorescence
T3 construct: osimertinib reacts faster with the EGFR kinase domain (L858R)
Description: FIG. 3 (A) Binding kinetics measured by stopped-flow fluorescence. […].

[5] = molecular target: T4, EGFR^L858R/T790M (Homo sapiens, UniProt P00533, L858R/T790M); test: HTRF cellular assay in human cancer cells H1975; format: cell-based; settings: read-out: IC50 H1975 EGFR LRTM
T4 construct: expressing WT EGFR, EGFR^L858R or EGFR^L858R/T790M; host or cells: NCI-H1975

[6] = tested on: Ba/F3 EGFR^L858R/C797S allograft; test: In vivo efficacy, Ba/F3 EGFR^L858R/C797S allograft; set-up: species or system mice; settings: Example 6 at 10 mpk, Example 3 at 30 mpk, BID po
[7] = molecular target: Ba/F3 cell lines stably expressing EGFR^L858R/C797S (Homo sapiens, UniProt P00533, C797S/L858R, cells depend on it); test: Cell viability assay (cell titer glo); format: cell-based; settings: 72 hours, first value of IC50/IC90
[8] = tested on: NCI-H1975 NSCLC-derived tumors (EGFR^L858R/T790M xenograft); test: In vivo efficacy, NCI-H1975 xenograft; settings: alone and in combination with osimertinib, mice
[9] = molecular target: T1, EGFR WT; test: HTRF cellular assay in human cancer cells A431; format: cell-based; set-up: expressing WT EGFR, EGFR^L858R or EGFR^L858R/T790M; #CRL-1555 (A431); host or cells: NCI-H2073; A431; settings: EGF 25 ng/ml
[10] = molecular target: Ba/F3 cell lines stably expressing EGFR^L858R/T790M/C797S (Homo sapiens, UniProt P00533, T790M/C797S/L858R, cells depend on it); test: Cell viability assay (cell titer glo); format: cell-based
Protocol: as §1
Plates were incubated for 72 hours at 37° C. After treatment with compounds, 25 μl/well CellTiter-Glo 2.0 reagent (Promega #G9243) were added and plates were incubated for 10 min at RT and luminescence was quantified according to the manufacturer's protocol.

T1 sequence (P00533 25-1210): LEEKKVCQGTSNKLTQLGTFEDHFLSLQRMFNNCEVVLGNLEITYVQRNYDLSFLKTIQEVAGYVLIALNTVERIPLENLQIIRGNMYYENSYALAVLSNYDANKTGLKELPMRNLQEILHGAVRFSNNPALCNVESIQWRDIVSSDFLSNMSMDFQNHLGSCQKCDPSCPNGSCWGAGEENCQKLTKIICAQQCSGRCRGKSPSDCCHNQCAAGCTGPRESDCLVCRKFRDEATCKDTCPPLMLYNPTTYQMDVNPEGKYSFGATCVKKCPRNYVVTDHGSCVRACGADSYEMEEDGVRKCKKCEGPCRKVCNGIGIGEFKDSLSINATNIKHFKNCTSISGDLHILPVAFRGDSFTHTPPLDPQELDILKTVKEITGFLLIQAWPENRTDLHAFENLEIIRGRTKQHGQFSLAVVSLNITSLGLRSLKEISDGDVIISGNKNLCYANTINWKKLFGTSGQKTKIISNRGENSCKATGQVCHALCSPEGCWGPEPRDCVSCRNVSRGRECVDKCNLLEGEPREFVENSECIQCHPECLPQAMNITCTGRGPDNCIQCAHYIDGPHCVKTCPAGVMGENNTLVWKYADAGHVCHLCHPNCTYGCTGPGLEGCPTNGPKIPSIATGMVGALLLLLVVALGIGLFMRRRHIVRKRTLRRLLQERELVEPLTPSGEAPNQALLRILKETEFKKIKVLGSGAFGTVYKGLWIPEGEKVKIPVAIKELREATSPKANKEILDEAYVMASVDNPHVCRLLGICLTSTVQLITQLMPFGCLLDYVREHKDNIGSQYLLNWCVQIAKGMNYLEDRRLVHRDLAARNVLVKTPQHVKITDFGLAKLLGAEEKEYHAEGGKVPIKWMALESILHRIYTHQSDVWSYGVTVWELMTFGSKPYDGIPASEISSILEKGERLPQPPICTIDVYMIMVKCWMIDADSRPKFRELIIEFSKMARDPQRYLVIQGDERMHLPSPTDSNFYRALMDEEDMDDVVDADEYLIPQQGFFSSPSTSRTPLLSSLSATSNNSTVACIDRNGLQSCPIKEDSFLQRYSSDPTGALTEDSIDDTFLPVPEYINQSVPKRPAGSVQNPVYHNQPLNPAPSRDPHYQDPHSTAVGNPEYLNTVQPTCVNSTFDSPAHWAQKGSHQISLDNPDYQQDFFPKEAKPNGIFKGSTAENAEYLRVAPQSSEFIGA
T4 sequence (P00533 25-1210 T790M/L858R): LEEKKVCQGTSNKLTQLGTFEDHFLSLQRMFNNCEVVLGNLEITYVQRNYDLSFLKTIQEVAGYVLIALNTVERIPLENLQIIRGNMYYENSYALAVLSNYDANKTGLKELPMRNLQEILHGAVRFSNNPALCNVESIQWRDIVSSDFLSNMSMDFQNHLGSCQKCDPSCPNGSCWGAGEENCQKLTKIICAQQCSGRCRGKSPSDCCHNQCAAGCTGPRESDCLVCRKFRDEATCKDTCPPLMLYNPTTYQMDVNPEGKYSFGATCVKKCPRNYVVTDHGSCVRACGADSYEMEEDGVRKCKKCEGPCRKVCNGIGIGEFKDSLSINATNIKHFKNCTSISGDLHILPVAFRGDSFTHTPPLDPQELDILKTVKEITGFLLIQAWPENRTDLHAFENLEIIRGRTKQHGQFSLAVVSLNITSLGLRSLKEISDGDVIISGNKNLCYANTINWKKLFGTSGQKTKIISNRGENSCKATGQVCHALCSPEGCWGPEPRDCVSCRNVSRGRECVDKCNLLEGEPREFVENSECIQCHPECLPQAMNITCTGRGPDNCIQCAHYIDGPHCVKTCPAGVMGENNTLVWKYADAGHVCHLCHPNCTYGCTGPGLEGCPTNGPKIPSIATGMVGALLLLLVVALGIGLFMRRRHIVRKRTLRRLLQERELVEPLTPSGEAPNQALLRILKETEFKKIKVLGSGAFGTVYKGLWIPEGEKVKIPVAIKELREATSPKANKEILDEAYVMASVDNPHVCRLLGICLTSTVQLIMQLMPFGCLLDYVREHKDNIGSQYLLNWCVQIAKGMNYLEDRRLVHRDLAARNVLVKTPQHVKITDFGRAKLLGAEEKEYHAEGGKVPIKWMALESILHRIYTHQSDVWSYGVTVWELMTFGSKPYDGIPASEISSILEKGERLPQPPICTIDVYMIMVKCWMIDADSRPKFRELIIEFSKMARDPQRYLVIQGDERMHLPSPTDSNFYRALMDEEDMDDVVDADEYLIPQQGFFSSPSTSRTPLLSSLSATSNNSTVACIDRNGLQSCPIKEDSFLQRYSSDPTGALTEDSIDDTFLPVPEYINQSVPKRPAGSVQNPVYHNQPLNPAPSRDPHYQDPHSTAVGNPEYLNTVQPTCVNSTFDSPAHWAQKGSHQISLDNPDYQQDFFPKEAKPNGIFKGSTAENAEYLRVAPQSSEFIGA
T3 sequence (P00533 712-979 L858R limits assumed): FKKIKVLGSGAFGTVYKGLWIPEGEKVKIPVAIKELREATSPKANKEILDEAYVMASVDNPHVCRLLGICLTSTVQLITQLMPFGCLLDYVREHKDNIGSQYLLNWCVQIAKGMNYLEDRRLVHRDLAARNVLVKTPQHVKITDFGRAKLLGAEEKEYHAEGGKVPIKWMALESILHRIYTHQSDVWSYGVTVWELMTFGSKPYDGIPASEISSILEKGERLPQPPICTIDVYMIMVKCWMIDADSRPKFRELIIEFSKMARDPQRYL
T2 sequence (P00533 25-1210 L858R): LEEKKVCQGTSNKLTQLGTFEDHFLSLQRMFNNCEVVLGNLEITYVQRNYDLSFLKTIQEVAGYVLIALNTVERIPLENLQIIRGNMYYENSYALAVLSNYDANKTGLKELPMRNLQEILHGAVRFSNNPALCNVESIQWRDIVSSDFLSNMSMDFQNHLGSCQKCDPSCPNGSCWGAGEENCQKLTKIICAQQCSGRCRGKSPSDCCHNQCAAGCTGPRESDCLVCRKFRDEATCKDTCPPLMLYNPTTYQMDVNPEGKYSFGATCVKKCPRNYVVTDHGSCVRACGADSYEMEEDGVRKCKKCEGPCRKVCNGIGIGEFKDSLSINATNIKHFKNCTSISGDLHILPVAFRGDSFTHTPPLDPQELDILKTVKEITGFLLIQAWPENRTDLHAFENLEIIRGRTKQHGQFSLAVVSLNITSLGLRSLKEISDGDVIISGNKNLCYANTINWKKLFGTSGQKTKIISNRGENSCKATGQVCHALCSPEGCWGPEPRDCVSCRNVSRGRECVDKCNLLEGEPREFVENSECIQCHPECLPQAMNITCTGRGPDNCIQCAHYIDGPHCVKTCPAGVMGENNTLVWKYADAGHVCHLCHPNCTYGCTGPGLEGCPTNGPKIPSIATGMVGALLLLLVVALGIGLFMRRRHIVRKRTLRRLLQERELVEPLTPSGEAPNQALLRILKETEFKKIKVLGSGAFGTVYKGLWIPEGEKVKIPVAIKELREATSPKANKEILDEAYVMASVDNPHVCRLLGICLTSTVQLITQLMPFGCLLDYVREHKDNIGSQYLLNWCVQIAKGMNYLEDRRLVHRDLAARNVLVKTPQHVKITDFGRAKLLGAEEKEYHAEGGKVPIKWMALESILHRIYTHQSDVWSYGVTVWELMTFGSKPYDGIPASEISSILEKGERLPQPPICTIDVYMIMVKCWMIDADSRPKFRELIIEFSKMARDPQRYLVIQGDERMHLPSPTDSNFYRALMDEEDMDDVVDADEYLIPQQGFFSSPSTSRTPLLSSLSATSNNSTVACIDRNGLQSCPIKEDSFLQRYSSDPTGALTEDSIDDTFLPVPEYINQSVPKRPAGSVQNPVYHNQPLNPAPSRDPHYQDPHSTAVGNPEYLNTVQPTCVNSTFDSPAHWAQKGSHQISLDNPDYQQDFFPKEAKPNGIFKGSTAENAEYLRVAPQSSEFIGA
Sequence of Ba/F3 cell lines stably expressing EGFR^L858R/T790M/C797S (P00533 whole entry T790M/C797S/L858R): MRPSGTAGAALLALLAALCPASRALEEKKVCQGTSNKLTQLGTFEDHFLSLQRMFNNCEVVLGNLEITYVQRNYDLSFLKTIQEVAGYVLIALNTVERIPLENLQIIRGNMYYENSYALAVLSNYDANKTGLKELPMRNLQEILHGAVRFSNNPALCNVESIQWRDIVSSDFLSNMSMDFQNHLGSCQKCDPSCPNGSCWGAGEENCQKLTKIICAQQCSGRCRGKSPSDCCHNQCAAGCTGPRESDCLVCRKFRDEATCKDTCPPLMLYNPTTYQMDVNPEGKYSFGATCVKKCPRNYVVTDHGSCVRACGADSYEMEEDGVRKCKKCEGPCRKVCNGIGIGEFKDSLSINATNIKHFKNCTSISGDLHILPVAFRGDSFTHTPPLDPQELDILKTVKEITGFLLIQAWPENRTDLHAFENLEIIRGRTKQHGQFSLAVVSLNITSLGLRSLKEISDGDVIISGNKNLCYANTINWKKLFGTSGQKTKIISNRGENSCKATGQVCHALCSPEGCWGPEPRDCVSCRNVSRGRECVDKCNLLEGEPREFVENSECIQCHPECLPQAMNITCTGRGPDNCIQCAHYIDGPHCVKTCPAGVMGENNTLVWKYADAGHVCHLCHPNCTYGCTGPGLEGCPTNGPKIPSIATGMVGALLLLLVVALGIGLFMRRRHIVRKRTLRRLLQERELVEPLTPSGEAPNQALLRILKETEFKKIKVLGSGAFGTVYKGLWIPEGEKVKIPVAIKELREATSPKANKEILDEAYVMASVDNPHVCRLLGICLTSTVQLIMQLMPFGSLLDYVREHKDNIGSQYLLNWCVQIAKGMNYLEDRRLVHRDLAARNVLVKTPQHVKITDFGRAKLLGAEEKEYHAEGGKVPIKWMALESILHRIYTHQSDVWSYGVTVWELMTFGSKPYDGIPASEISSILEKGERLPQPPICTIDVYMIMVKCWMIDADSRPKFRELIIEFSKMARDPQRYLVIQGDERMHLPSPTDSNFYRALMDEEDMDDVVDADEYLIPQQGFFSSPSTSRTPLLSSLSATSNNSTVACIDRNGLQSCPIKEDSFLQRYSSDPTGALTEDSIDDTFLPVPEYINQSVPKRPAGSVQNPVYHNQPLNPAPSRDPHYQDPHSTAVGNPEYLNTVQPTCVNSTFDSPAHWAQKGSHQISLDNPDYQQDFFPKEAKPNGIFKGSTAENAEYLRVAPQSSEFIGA

SMILES: O=C(Nc1nccs1)C(c1ncn2c1C[C@@H](F)C2)n1cc2c(Cl)cc(-c3ccc(N4CCOCC4)cc3)c(Cl)c2n1 (stereo partly drawn) [Example 1, 2-[4,7-Dichloro-6-(4-morpholinophenyl)indazol-2-yl]-2-[(6R)-6-fluoro-6,7-dihydro-5H-pyrrolo[1,2-c]imidazol-1-yl]-N-thiazol-2-yl-acetamide]
- pIC50 [1]: ~5.70
- hepatocyte CLint at 1 μM ([2]; human): 3.5 µL/min/1e6 cells
- hepatocyte CLint at 1 μM ([2]; mouse): 16 µL/min/1e6 cells
- pIC50 [3]: 7.80
- increase of the residence time of osimertinib ([4]; global fitting of the kinetic data, osimertinib in presence of the allosteric inhibitor): around 120 fold
- reaction of osimertinib with the EGFR kinase domain (L858R) in presence of the allosteric inhibitor ([4]; stopped-flow fluorescence): reacts faster
- pIC50 [5]: 8.15

SMILES: Cc1c(-c2ccc(N3CCOCC3)cc2)cc(C(F)F)c2cn(C(C(=O)Nc3nccs3)c3ncn4c3C[C@@H](F)C4)nc12 (stereo partly drawn) [Example 2, 2-[4-(Difluoromethyl)-7-methyl-6-(4-morpholinophenyl)indazol-2-yl]-2-[(6R)-6-fluoro-6,7-dihydro-5H-pyrrolo[1,2-c]imidazol-1-yl]-N-thiazol-2-yl-acetamide]
- hepatocyte CLint at 1 μM ([2]; human): 6.1 µL/min/1e6 cells
- hepatocyte CLint at 1 μM ([2]; mouse): 21 µL/min/1e6 cells

SMILES: Cc1c(-c2ccc(N3CCOCC3)cc2)cc(C(F)F)c2cn(C(C(=O)Nc3nccs3)c3ncn4c3CCC43CC3)nc12 (stereo not shown) [Example 3, 2-[4-(Difluoromethyl)-7-methyl-6-(4-morpholinophenyl)indazol-2-yl]-2-spiro[6,7-dihydropyrrol[1,2-c]imidazole-5,1′-cyclopropane]-1-yl-N-thiazol-2-yl-acetamide]
- hepatocyte CLint at 1 μM ([2]; human): 5.9 µL/min/1e6 cells
- hepatocyte CLint at 1 μM ([2]; mouse): 25 µL/min/1e6 cells
- changes in body weight [6]: No significant changes in body weight

SMILES: O=C(Nc1nccs1)C(c1ncn2c1CCC2)n1cc2c(F)cc(C#Cc3ccc(CN4CCC(O)CC4)cc3)cc2n1 (stereo not shown) [Example 4, 2-(6,7-Dihydro-5H-pyrrolo[1,2-c]imidazol-1-yl)-2-(4-fluoro-6-((4-((4-hydroxypiperidin-1-yl)methyl)phenyl)ethynyl)-2H-indazol-2-yl)-N-(thiazol-2-yl)acetamide]
- GI50 [7]: 800 nM

SMILES: Cc1c(C#Cc2ccc(CN3CCC(CO)CC3)cc2)cc(C(F)F)c2cn(C(C(=O)Nc3nccs3)c3ncn4c3CCC4)nc12 (stereo not shown) [Example 5, 2-[4-(Difluoromethyl)-6-[2-[4-[[4-(hydroxymethyl)-1-piperidyl]methyl]phenyl]ethynyl]-7-methyl-indazol-2-yl]-2-(6,7-dihydro-5H-pyrrolo[1,2-c]imidazol-1-yl)-N-thiazol-2-yl-acetamide]
- hepatocyte CLint at 1 μM ([2]; human): 2.4 µL/min/1e6 cells
- hepatocyte CLint at 1 μM ([2]; mouse): 36 µL/min/1e6 cells

SMILES: Cc1c(C#Cc2ccc(CN3CCC(CO)CC3)cc2)cc(C(F)F)c2cn(C(C(=O)Nc3nccs3)c3ncn4c3CCC43CC3)nc12 (stereo not shown) [Example 6]
- changes in body weight [8]: No significant changes in body weight
- pIC50 [9]: 6.24
- pIC50 [1]: 6.26
- hepatocyte CLint at 1 μM ([2]; human): 1 µL/min/1e6 cells
- hepatocyte CLint at 1 μM ([2]; mouse): 25 µL/min/1e6 cells
- pIC50 [3]: 7.80
- pIC50 [5]: 8.10
- changes in body weight [6]: No significant changes in body weight

SMILES: O=C(Nc1nccs1)C(c1cc(F)ccc1O)N1Cc2ccc(-c3ccc(N4CCNCC4)cc3)cc2C1=O (stereo not shown) [JBJ-04-125-02, reference compound]
- GI50 ([10]; 72 hours, first value of IC50/IC90): 30 nM
- IC90 ([10]; read-out: Viability IC90 L858R/T790M/C797S, 72 hours, second value of IC50/IC90): 40 nM
